Tests used:
[1] = tested on: C57Bl/6J mice fed either a chow or western diet; test: MTP inhibitor BMS-212122-01 with or without lovastatin, pioglitazone or PBA in chow or western diet fed C57Bl/6J mice; format: in vivo; conditions: for hepatic triglycerides: MTPi 1 mg/kg/day one week, lovastatin 50 or pioglitazone 25 mg/kg/day added to MTPi; for plasma ALT/AST levels: lovastatin added to MTPi; for hepatic free cholesterol: lovastatin or pioglitazone co-administered with MTPi; for Hepatic free fatty acids (FFA): lovastatin or pioglitazone with MTPi; for hepatic total and free cholesterol / hepatic triglycerides compared to western diet fed controls / plasma lipids: drug alone, one week
Method: FIG. 13. Age matched wildtype C57/Bl6J animals chow fed animals were treated with DMSO (control) or MTP inhibitor (MTPi) for one week. […] All drugs were administered by oral gavage. Animals were sacrificed on day 7 and plasma and livers were harvested and analyzed. * represent comparison to DMSO control; # represent comparisons to WD control; @ represent comparisons to WD MTP inhibitor treatment.
FIG. 18. Age matched wildtype C57/BL6J were fed WD for one month and were administered MTPi, or 4-phenylbutyric acid (PBA) everyday for one week. All drugs were administered by oral gavage. Animals were sacrificed on day 7 and livers were harvested. * represent comparison DMSO control; # represent comparisons to HF MTP inhibitor treated animals.
C57BL/6J Black 6 mice (stock number 000664) were obtained from Jackson Laboratory and used for chow fed and western diet fed experiments. MTP inhibitor (BMS […]) (1 mg/kg/day), Lovastatin, Pioglitazone (Toronto Research Chemicals P471000) (25 mg/kg/day) and 4-phenylbutyric acid (Calbiochem 820986) (1 g/kg/day) were administered by oral gavage. Chow fed animals were treated for one week with either DMSO or MTP inhibitor. Western diet fed animals were fed DMSO, MTP inhibitor, Pioglitazone, MTP inhibitor+Pioglitazone, Lovastatin, MTP inhibitor+Lovastatin, 4-phenylbutyric acid, and MTP inhibitor+4-phenylbutyric acid. Chow fed animals were also injected with either PBS or Tunicamycin and animals were sacrificed at 4, 8, 12 and 24 hours.
All animals were kept in 07:00-19:00 h lighting schedule. […] Food was withdrawn 16 h before the sacrifice of the mice. On the day of the experiment, mice were anesthetized and blood was collected from the heart. Liver was collected, washed in ice-cold PBS, cut into small pieces and used for lipid extraction, histological staining, to measure different protein activities/quantities and for mRNA analysis. Lipids were extracted from the tissue homogenates following the Bligh and Dyer method. Triglyceride (Infinity TM Triglyceride, TR22421) and total cholesterol (Infinity TM Cholesterol, TR13421) levels in the tissues were determined using commercial kits (Thermo Scientific). Free cholesterol and free fatty acid levels were measured using kits from Wako Chemicals (Germany). Esterified cholesterol was calculated by subtracting the free cholesterol from the total cholesterol.
We next studied the effects of chemical inhibition of MTP in C57Bl/6J mice fed either a chow or western diet (WD) for 5 weeks. Chow fed animals were orally gavaged with either DMSO or MTP inhibitor BMS-212122-01 (MTPi; 1 mg/kg/day) for one week. WD fed animals were treated with DMSO, MTP inhibitor with or without lovastatin (50 mg/kg/day) or pioglitazone (25 mg/kg/day) daily by oral gavage for one week.

[2] = tested on: hyperlipidemic bonnet macaques; test: MTP inhibitor with or without pioglitazone or lovastatin in western diet fed bonnet macaques; format: in vivo, bonnet macaque monkeys; conditions: for plasma cholesterol: then MTP inhibitor one month ± Pioglitazone or Lovastatin; for Hepatic cholesterol, total and free: biopsies
Method: FIG. 14. Bonnet Macaque monkeys fed ad libitum WD diet for 40 days and were administered MTPi, Lovastatin, (Lovas) or Pioglitazone (Pio) everyday for one month. A-D* represent comparisons to the MTPi alone group. E-I* represent comparisons between baseline and post biopsies.
Eleven (11) Male bonnet macaque monkeys were fed western diet for 40 days and treated with MTP inhibitor (BMS 2122122-01) with or without either Pioglitazone or Lovastatin for one month. Plasma samples were obtained at Day 0, 20, 40, 47, 54, 61 and 68 days. Liver biopsies were obtained on Day 40 and Day 68. Biopsies were conducted over two days; 2 animals from each group were biopsied per day.
In order to ascertain if the effects seen were a species-specific effect, we studied the treatment of MTP inhibitors either alone or in conjunction with Pioglitazone or Lovastatin in hyperlipidemic bonnet macaques. These animals were fed ad libitum with a WD for 40 days and then subsequently treated with MTP inhibitors for one month. […] These studies indicate that western diet increases plasma cholesterol and that these increases can be abrogated by treatment with an MTP inhibitor.

| Compound | hepatic triglycerides ([1]; listed as Lovastatin) | plasma ALT/AST levels ([1]; MTPi one week) | plasma ALT/AST levels ([1]; MTPi one week, listed as Lovastatin) | hepatic free cholesterol ([1]; MTPi one week) | Hepatic free fatty acids (FFA) ([1]; MTPi one week) | Cardiac tissue lipid profiles ([1]; WD fed, MTPi ± pioglitazone or lovastatin) | hepatic total and free cholesterol ([1]; WD fed) | hepatic triglycerides compared to western diet fed controls ([1]; WD fed) | plasma lipids ([1]; WD fed) | intestinal lipids ([1]; WD fed, with MTPi) | plasma cholesterol ([2]; WD 40 days) | Hepatic cholesterol, total and free ([2]; co-drugs with MTP inhibitor) | hepatic triglycerides [1] | rise in intestinal free cholesterol seen with MTPi alone ([1]; WD fed, in conjunction with MTPi) | Plasma FFA levels ([1]; high fat feeding, MTPi one week, co-drugs with MTPi) | plasma AST/ALT levels vs baseline and day 40 ([2]; WD 40 days, then treatment one month) | Hepatic triglycerides (biopsies day 40 vs day 68) ([2]; co-drugs with MTP inhibitor) |
| --- | --- | --- | --- | --- | --- | --- | --- | --- | --- | --- | --- | --- | --- | --- | --- | --- | --- |
| CC[C@H](C)C(=O)O[C@H]1C[C@@H](C)C=C2C=C[C@H](C)[C@H](CC[C@@H]3C[C@@H](O)CC(=O)O3)[C@H]21 [lovastatin] | without affecting | lowered | abrogated increases | reduced | resistant | no changes | decreased | no effect | no effect | no effect | no further significant effect | suppressed |  |  |  |  |  |
| CCc1ccc(CCOc2ccc(CC3SC(=O)NC3=O)cc2)nc1 (racemic) [pioglitazone, (RS)-5-(4-[2-(5-ethylpyridin-2-yl)ethoxy]benzyl)thiazolidine-2,4-dione] |  |  |  | reduced | resistant |  | decreased | slightly lower | no effect |  | no further significant effect | suppressed | abrogated | attenuated | completely abrogated | did not show elevated | no significant difference |
